Earlier results in patent publication US9808460B2, “Controlled release auris sensory cell modulator compositions and methods for the treatment of otic disorders” (Otonomy, Inc., priority 2008, dated 2017).

System: ototoxic effects of cisplatin
Details: in certain instances

NCCCNCCSP(=O)(O)O [Amifostine]
doses needed to protect against or ameliorate the ototoxic effects of cisplatin: ≥ 40 mg/kg
